How the values were obtained:
[1] = Polydispersity index (PDI) by dynamic light scattering; format: physicochemical; details: RSV-F replicon RNA LNP, DLS
Method: Unless indicated otherwise, all PDIs referred to herein are the PDI of the fully formed nanoparticle, as measured by dynamic light scattering on a Malvern Zetasizer. The nanoparticle sample was diluted in phosphate buffered saline (PBS) so that the count rate was approximately 200-400 kcts. The data is presented in Table 3 as a weighted average of the intensity measure.
(§1) % entrapment (% E), Concentration of RNA (Conc), particle size measured by DLS, and polydispersity reported by DLS of LNPs prepared with different cationic lipids

RSV F protein = experiment: RSV immunogenicity: F-specific IgG titers after IM vaccination with liposome-formulated self-replicating RNA; format: in vivo; details: IM days 0 and 21, BALB/c mice, two weeks after two immunizations
[2] = Percentage of encapsulated RNA and RNA concentration of replicon liposomes (Quant-iT RiboGreen); format: physicochemical
Method: RNA was encapsulated in liposomes made essentially by the method of Geall et al. (2012) PNAS vol. 109 (36): 14604-14609, Jeffs et al. (2005) Pharmaceutical Research 22 (3):362-372, and Maurer et al. (2001) Biophysical Journal, 80: 2310-2326 The liposomes were made of 10% DSPC (zwitterionic), 40% cationic lipid, 48% cholesterol and 2% PEG-conjugated DMG (2 kDa PEG). These proportions refer to the % moles in the total liposome.
Briefly, lipids were dissolved in ethanol (2 ml), a RNA replicon was dissolved in buffer (2 ml, 100 mM sodium citrate, pH 6) and these were mixed with 2 ml of buffer followed by 1 hour of equilibration. The mixture was then dialized overnight against 1×PBS. The resulting product contained liposomes, with ˜70-95% encapsulation efficiency. For in vitro and in vivo experiments formulations were diluted to the required RNA concentration with 1×PBS.
The percentage of encapsulated RNA and RNA concentration were determined by Quant-iT RiboGreen RNA reagent kit (Invitrogen), following manufacturer's instructions. The ribosomal RNA standard provided in the kit was used to generate a standard curve. Liposomes were diluted 10× or 100× in 1×TE buffer (from kit) before addition of the dye. Separately, liposomes were diluted 10× or 100× in 1×TE buffer containing 0.5% Triton X before addition of the dye (to disrupt the liposomes and thus to assay total RNA). Thereafter an equal amount of dye was added to each solution and then ˜180 μL of each solution after dye addition was loaded in duplicate into a 96 well tissue culture plate. The fluorescence (Ex 485 nm, Em 528 nm) was read on a microplate reader. All liposome formulations were dosed in vivo based on the encapsulated amount of RNA.
as §1

[3] = Particle size of the lipid nanoparticle (Z-average, dynamic light scattering, Malvern Zetasizer); format: physicochemical; details: RSV-F replicon RNA LNP, DLS
Text: The lipid nanoparticles have a size of about 1 to about 2,500 nm, about 10 to about 1,500 nm, about 20 to about 1,000 nm, in a sub-embodiment about 50 to about 600 nm, in a sub-embodiment about 50 to about 400 nm, in a sub-embodiment about 50 to about 250 nm, and in a sub-embodiment about 50 to about 150 nm. Unless indicated otherwise, all sizes referred to herein are the average sizes (diameters) of the fully formed nanoparticle, as measured by dynamic light scattering on a Malvern Zetasizer. The nanoparticle sample is diluted in phosphate buffered saline (PBS) so that the count rate is approximately 200-400 kcts. The data is presented as a weighted average of the intensity measure.
Unless indicated otherwise, all particle size measurements referred to in Table 3 are the Z-average particle size of the fully formed nanoparticle, as measured by dynamic light scattering on a Malvern Zetasizer. The nanoparticle sample was diluted in phosphate buffered saline (PBS) so that the count rate is approximately 200-400 kcts.
as §1

[4] = Measurement of mRNA encapsulation in lipid nanoparticles (Quant-iT Ribogreen); format: physicochemical; details: Leptin mRNA in LNP
Method: All equipment and disposable supplies are certified free of RNase activity by the manufacturer or rendered RNase free by use of the RNaseZap reagent (LifeTechnologies). mRNA is encapsulated at a cationic lipid amine to mRNA phosphate (N:P) molar ratio of 4:1. Lipids (cationic lipid, DSPC, cholesterol and lipidated PEG or stealth lipid) are dissolved in ethanol. The molar ratios are 40:10:38:2, respectively. The mixture is sonicated briefly, then gently agitated for 5 minutes and then maintained at 37° C. until use. mRNA is exchanged into citrate buffer pH 5.8-6.0 by use of Amicon Ultra-15 centrifugal concentrators, and the final concentration is adjusted to 0.5 mg/ml and held at 37° C. until use. An equal volume of lipids in ethanol, mRNA in citrate buffer, and citrate buffer alone are drawn into disposable syringes.
Tubing leading from syringes containing lipids and mRNA are attached to the T junction, and tubing leading from the syringe containing citrate buffer alone is paired with the tubing exiting the T-junction over a collection vessel containing a stir bar on an active stir plate. Syringes are placed in a syringe pump set to expel contents at a flow rate of 1 ml per minute. The pump is activated, and the collected mRNA in lipid nanoparticles is transferred to SnakeSkin dialysis tubing (10,000 MWCO, Thermo Scientific). Material is dialyzed against RNAse- and pyrogen-free 1× phosphate buffered saline overnight at 4° C.
Percent encapsulation of mRNA in lipid nanoparticles is determined using the Quant-iT Ribogreen RNA Assay kit (Life Technologies). The LNP-mRNA suspension is assayed in buffer (mRNA outside the particle), and buffer plus Triton X-100 detergent (total mRNA). The difference calculated is the mRNA inside the particle. Prepare a 1000 ng/mL stock from the RNA provided in the kit and use this to generate a standard curve (0 ng/ml, 15.63-1000 ng/ml) in TE and TE+0.75% Triton X-100. Prepare LNP-mRNA samples in TE buffer and TE buffer+0.75% Triton X-100 with appropriate dilution so that reading is in the range of standard curve (400-2,000 fold). In a 384-well plate (Costar non-treated #3573) add 0.04 ml of standard (in duplicate) or sample (in triplicate) per well. Dilute Ribogreen reagent 240-fold in TE buffer and add 0.06 ml per well. Mix contents of wells and measure fluorescence (excitation=480 nm, emission=520 nm). Subtract background values (no RNA) from standard and test sample values and determine the concentrations of RNA in the samples using the standard curves. Determine the percent encapsulation of the sample by dividing the difference in concentrations between sample+triton and sample in buffer alone by the sample+triton concentration.

[5] = RSV-F replicon RNA LNP prepared for 1st immunization
[6] = RSV-F replicon RNA LNP prepared for 2nd immunization

Compound | % encapsulation mRNA Leptin [4] | other results
CCCCC/C=C\C/C=C\CCCCCCCC(=O)OCC(COC(=O)CCC(OCCCCCCCC)OCCCCCCCC)COC(=O)CCN(C)C (stereo not shown) [Example 32, (9Z,12Z)-3-((4,4-bis(octyloxy)butanoyl)oxy)-2-(((3-(dimethylamino)propanoyl)oxy)methyl)propyl octadeca-9,12-dienoate] | 97.1% | PDI 1st IM ([1]; 1st immunization): 0.147; PDI 2nd IM ([1]; 2nd immunization): 0.088; Immunogenicity (2wp2; log10 IgG titers) (RSV F protein; 0.1 ng replicon RNA): 4.77 log10 IgG titers; Immunogenicity (2wp2; log10 IgG titers) (RSV F protein; 1 ng replicon RNA): 4.92 log10 IgG titers; %E (% entrapment) 1st IM [2, 5]: 92.6%; Conc (Concentration of RNA) 1st IM [2, 5]: 8.81 µg/mL; %E (% entrapment) 2nd IM [2, 6]: 94.72%; Conc (Concentration of RNA) 2nd IM [2, 6]: 9.653 µg/mL; Size 1st IM ([3]; 1st immunization): 136.2 nm; Size 2nd IM ([3]; 2nd immunization): 135 nm
CCCCCCCCOC(CCC(=O)OCC(COC(=O)CCC(OCCCCCCCC)OCCCCCCCC)COC(=O)C1(C)CCN(C)C1)OCCCCCCCC (stereo not shown) [Example 58, 2-(((1,3-dimethylpyrrolidine-3-carbonyl)oxy)methyl)propane-1,3-diyl bis(4,4-bis(octyloxy)butanoate)] | 86.0% | –
CCCCCCCCOC(CCC(=O)OCC(COC(=O)CCC(OCCCCCCCC)OCCCCCCCC)COC(=O)CCN(C)C)OCCCCCCCC [Example 59, 2-(((3-(dimethylamino)propanoyl)oxy)methyl)propane-1,3-diyl bis(4,4-bis(octyloxy)butanoate)] | 76.6% | –
CCCCCCCCOC(CCCCC(=O)OCC(COC(=O)CCCCC(OCCCCCCCC)OCCCCCCCC)COC(=O)C1CCN(C)C1)OCCCCCCCC (stereo not shown) [Example 60, 2-(((1-methylpyrrolidine-3-carbonyl)oxy)methyl)propane-1,3-diyl bis(6,6-bis(octyloxy)hexanoate)] | 89.1% | –
CCCCCCCCCCCCCCCC(=O)OCC(COC(=O)CCCCC(COC(=O)CCCCCCC)COC(=O)CCCCCCC)COC(=O)C1CCN(C)C1 (stereo not shown) [Example 63, 2-(5-(3-((1-methylpyrrolidine-3-carbonyl)oxy)-2-((palmitoyloxy)methyl)propoxy)-5-oxopentyl)propane-1,3-diyl dioctanoate] | 18.8% | –
CCCCCCCCCCCCCC(=O)OCC(COC(=O)CCCCC(COC(=O)CCCCCCC)COC(=O)CCCCCCC)COC(=O)C1CCN(C)C1 (stereo not shown) [Example 64, 2-(5-(3-((1-methylpyrrolidine-3-carbonyl)oxy)-2-((tetradecanoyloxy)methyl)propoxy)-5-oxopentyl)propane-1,3-diyl dioctanoate] | 87.9% | –
CCCCCCCCCCCCCC(=O)OCC(COC(=O)CCC(OCCCCCCCC)OCCCCCCCC)COC(=O)C1CCN(C)C1 (stereo not shown) [Example 66, 3-((4,4-bis(octyloxy)butanoyl)oxy)-2-((tetradecanoyloxy)methyl)propyl 1-methylpyrrolidine-3-carboxylate] | 70.5% | –
CCCCCCCCCCCCCCCC(=O)OCC(COC(=O)CCC(OCCCCCCCC)OCCCCCCCC)COC(=O)C1CCN(C)C1 (stereo not shown) [Example 67, 3-((4,4-bis(octyloxy)butanoyl)oxy)-2-((palmitoyloxy)methyl)propyl 1-methylpyrrolidine-3-carboxylate] | 62.8% | –
CCCCCCCCOC(CCC(=O)OCC(COC(=O)CCCCCCC(=O)OC)COC(=O)C1CCN(C)C1)OCCCCCCCC (stereo not shown) [Example 68, 1-(3-((4,4-bis(octyloxy)butanoyl)oxy)-2-(((1-methylpyrrolidine-3-carbonyl)oxy)methyl)propyl) 8-methyl octanedioate] | 5.9% | –
CCCCCCCCOC(=O)CCCCCCCCC(=O)OCC(COC(=O)CCC(OCCCCCCCC)OCCCCCCCC)COC(=O)C1CCN(C)C1 (stereo not shown) [Example 69, 1-(3-((4,4-bis(octyloxy)butanoyl)oxy)-2-(((1-methylpyrrolidine-3-carbonyl)oxy)methyl)propyl) 10-octyl decanedioate] | 79.3% | –
CCCCCCCCCCCCC(CCOC(=O)OCC(COC(=O)CCCCCCC(=O)OC)COC(=O)CCC(OCCCCCCCC)OCCCCCCCC)OC(=O)OCCCN(C)C (stereo not shown) [Example 70, 1-(16-(((4,4-bis(octyloxy)butanoyl)oxy)methyl)-9-dodecyl-2-methyl-7,13-dioxo-6,8,12,14-tetraoxa-2-azaheptadecan-17-yl) 8-methyl octanedioate] | 92.1% | –
CCCCCCCCOC(=O)CCCCCCCCC(=O)OCC(COC(=O)CCCCC(OCC(CCC)CCC)OCC(CCC)CCC)COC(=O)C1(C)CCN(C)CC1 (stereo not shown) [Example 71, 1-(3-((6,6-bis((2-propylpentyl)oxy)hexanoyl)oxy)-2-(((1,4-dimethylpiperidine-4-carbonyl)oxy)methyl)propyl) 10-octyl decanedioate] | 96.5% | –
CCCC(CCC)COC(CCCCC(=O)OCC(COC(=O)CCCCCCC(=O)OC)COC(=O)C1(C)CCN(C)CC1)OCC(CCC)CCC (stereo not shown) [Example 72, 1-(3-((6,6-bis((2-propylpentyl)oxy)hexanoyl)oxy)-2-(((1,4-dimethylpiperidine-4-carbonyl)oxy)methyl)propyl) 8-methyl octanedioate] | 31.2% | –
COC(=O)CCCCCCC(=O)OCC(COC(=O)CCCCCCC(=O)OC)COC(=O)C1CCN(C)C1 (stereo not shown) [Example 73, 8-dimethyl O′1,O1-(2-(((1-methylpyrrolidine-3-carbonyl)oxy)methyl)propane-1,3-diyl)dioctanedioate] | 9.3% | –
CCCCCCCCCCCCC(CCOC(=O)OCC(COC(=O)CCCCCCC(=O)OC)COC(=O)CCCCCCC(=O)OC)OC(=O)OCCCN(C)C (stereo not shown) [Example 74, O′1,O1-(2-(7-dodecyl-14-methyl-3,9-dioxo-2,4,8,10-tetraoxa-14-azapentadecyl)propane-1,3-diyl) 8-dimethyl dioctanedioate] | 23.0% | –

From patent publication US10059655B2, “Lipids and lipid compositions for the delivery of active agents” (priority 2013, dated 2018)
